Data set [1] concerns MIA-induced osteoarthritic rats. Briefly: Osteoarthritic pain model in rats (MIA), hind limb grip force. The data set is classed as in vivo, rat. The settings on record: grip force; for ED50: Rattus norvegicus, po, MIA-induced osteoarthritic rats, p.o., acute dosing, read-out: Acute ED50 (μmol/kg; 95% Cl); for % Efficacy at Reduced Dose, Chronic (BID, 12 days) / % Efficacy at Reduced Dose, Acute: relative to naïve group; for % Efficacy at Reduced Dose, Acute: 1 hour after acute dosing; for analgesic effects following repeated dosing vs acute dosing: BID 12 days, reduced dose. How it is done:
Unilateral knee joint osteoarthritis was induced in the rats by a single intraarticular (i.a.) injection of sodium monoiodoacetate (MIA) (Sigma, St. Louis, Mo.) (3 mg in 0.05 mL sterile isotonic saline) into the joint cavity using a 26 G needle under light (2-4%) halothane (Halocarbon Laboratories, River Edge, N.J.) anesthesia [Bove S E, Calcaterra S L, Brooker R M, Huber C M, Guzman R E, Juneau P L, et al. Weight bearing as a measure of disease progression and efficacy of anti-inflammatory compounds in a model of monosodium iodoacetate-induced osteoarthritis. Osteoarthritis Cartilage 2003; 11:821-30]. Following injection, the animals were allowed to recover from the effects of anesthesia (usually 5-10 min) before returning them to their home cages.
MIA-induced nociception can be assessed by measuring differences in weight bearing (WBD) or decrease in grip force (GF) several days to weeks following MIA injection [Bove S E, Calcaterra S L, Brooker R M, Huber C M, Guzman R E, Juneau P L, et al. Weight bearing as a measure of disease progression and efficacy of anti-inflammatory compounds in a model of monosodium iodoacetate-induced osteoarthritis. Osteoarthritis Cartilage 2003; 11:821-30; Fernihough J, Gentry C, Malcangio M, Fox A, Rediske J, Pellas T, et al. Pain related behaviour in two models of osteoarthritis in the rat knee. Pain 2004; 112:83-93].
In addition to weight-bearing differences, grip strength was also assessed in osteoarthritic rats approximately 21 days after MIA injection. Measurements of peak hind limb grip force were conducted by recording the maximum compressive force exerted on the hind limb strain gauge setup, in a commercially available grip force measurement system (Columbus Instruments, Columbus, Ohio). During testing, each rat was gently restrained by grasping around its rib cage and then allowed to grasp the wire mesh frame (10-12 cm^2) attached to the strain gauge. The experimenter then moved the animal in a rostral-to-caudal direction until the grip was broken. Each rat was sequentially tested twice at an approximately 2 min interval to obtain a raw mean grip force […]. These raw mean grip force data were in turn converted to a maximum hind limb compressive force (CFmax) (gram force)/kg body weight for each animal. A group of age-matched naïve animals was added to each experiment and the data obtained from the different dose groups for the compound being tested were compared to the naïve group.
Compound A was dissolved in 100% polyethylene glycol (PEG 400) for oral administration in a 2 mL/kg injection volume. Compounds B, C, and D were dissolved in 10% ethanol, 20% Tween 80 and 70% polyethylene glycol-400 for oral administration in a 2 mL/kg injection volume. All compounds were dosed orally (p.o.) 60 minutes before behavioral testing.
(§1) In the osteoarthritic pain model, animals were dosed twice-daily for 12 days using a dose that was non-efficacious following a single administration (e.g. 3 μmol/kg p.o. for Compound A). The animals were tested 1 hour after acute dosing (p.o.) and on day 12, 1 hour after oral dosing with either vehicle or the test compound.
The analgesic responses were shown as % effect relative to the healthy, untreated rats (naïve group).

Data set [2] can be described thus: Plasma levels in osteoarthritic rats after acute and repeated dosing. It is filed as in vivo, rat. The settings on record: for Plasma Levels, Chronic: 1 hour after last dose on 12 days of BID dosing; for EC50: Rattus norvegicus, osteoarthritic rats, acute dosing. How it is done:
as §1

SMILES strings stand for the structures. ≈ marks a conversion by molar mass, not a printed value.

With `Cc1nc(Nc2cccc3c2C[C@H](O)CC3)oc1-c1ccc(C(F)(F)F)cc1` [C, (2R)-8-({4-methyl-5-[4-(trifluoromethyl)phenyl]-1,3-oxazol-2-yl}amino)-1,2,3,4-tetrahydronaphthalen-2-ol], the ED50 in data set [1] was 14 µmol/kg. The “% Efficacy at Reduced Dose, Chronic (BID, 12 days)” value (“% Efficacy at Reduced Dose, Chronic” for short) in data set [1] (5 μmol/kg p.o. BID 12 days) was 38%; in data set [1] (15 μmol/kg p.o. BID 12 days), 83%. Also, the results for the “% Efficacy at Reduced Dose, Acute” value in data set [1] (5 μmol/kg p.o.) and in data set [1] (15 μmol/kg p.o.) were 15% and 22%, respectively. Also, the “analgesic effects following repeated dosing vs acute dosing” value in data set [1] was “significantly increased”. Further, the “Plasma Levels, Chronic” value in data set [2] (5 μmol/kg) was determined as 86 at 5 μmol/kg ng/mL; in data set [2] (15 μmol/kg) it was 150 at 15 μmol/kg ng/mL. In addition, it took 0.5 µg/mL (≈ 1.29 µM) to reach a half-maximal effect in data set [2] (EC50).

On to `CCC1(CC)C[C@@H](NC(=O)Nc2cccc3cnc(C)cc23)c2cc(F)ccc2O1` [D, N-[(4R)-2,2-diethyl-6-fluoro-3,4-dihydro-2H-chromen-4-yl]-N′-(3-methylisoquinolin-5-yl)urea], for which, in data set [1], the ED50 amounted to 26 µmol/kg and the “analgesic effects following repeated dosing vs acute dosing” value is recorded as “significantly increased”. In addition, in data set [1] (10 μmol/kg p.o. BID 12 days), the “% Efficacy at Reduced Dose, Chronic” value is recorded as 62%. In addition, the “% Efficacy at Reduced Dose, Acute” value in data set [1] (10 μmol/kg p.o.) amounted to 28%. Also, the “Plasma Levels, Chronic” value in data set [2] (10 μmol/kg) is on record as 217 at 10 μmol/kg ng/mL. Also, a half-maximal effect in data set [2] (EC50) was put at 1 µg/mL (≈ 2.45 µM).

Turning to `C[C@@H]1CN(c2ncccc2Cl)CC=C1C(=O)Nc1ccc(C(F)(F)F)cc1` [B, (3S)-3′-chloro-3-methyl-N-[4-(trifluoromethyl)phenyl]-3,6-dihydro-2H-1,2′-bipyridine-4-carboxamide], in data set [1], the ED50 was determined as 17 µmol/kg and the “analgesic effects following repeated dosing vs acute dosing” value is reported as “significantly increased”. Also, the “% Efficacy at Reduced Dose, Chronic” value in data set [1] (12 μmol/kg p.o. BID 12 days) is 80%. The “% Efficacy at Reduced Dose, Acute” value in data set [1] (12 μmol/kg p.o.) came to 30%. In addition, the “Plasma Levels, Chronic” value in data set [2] (12 μmol/kg) turned out to be 760 at 12 μmol/kg ng/mL. For the same molecule, the concentration for a half-maximal effect (EC50) in data set [2] came to 0.915 µg/mL (≈ 2.31 µM).

One may read the EC50 as the midpoint of the concentration-response curve.

These data come from patent US20100210682A1, “Repeated Dosing of TRPV1 Antagonists” (ABBOTT LABORATORIES, priority 2009, published 2010).
